Data: patent publication US11345697B1, “Crystalline berberine ascorbate salt, methods of preparation and applications thereof” (Beiture LLC, priority 2020, dated 2022)
Values belong to the molecule of their own block, whether it stands above or below them.

What was measured:
[1] = 25° C.; AAPS PharmSciTech, 2010, 11(3), 1466-1475; cited from earlier work
[2] = cited from earlier work
[3] = Procedure: 50 mg of crystalline berberine ascorbate Form A (from example 1) was suspended in 0.20 ml of water.
50 mg of crystalline berberine chloride dihydrate (from Sigma-Aldrich) was suspended in 10 ml of water. […] The solubility residue was isolated by filtration.

[4] = Thermogravimetry analysis (TGA); assay type: physicochemical; details: for TGA mass loss: heating from about 25° C. to about 100° C.
Procedure: TGA was performed on samples prepared according to standard methods using a Q SERIES™ Q5000 thermogravimetry analyzer available from TA Instruments INSTRUMENTS® (New Castle, Del.). A sample (approximately 5 mg) was placed into an aluminum sample pan and transferred to the TGA furnace. The instrument was purged with nitrogen at 50 mL/min and data collected between 25° C. and 300° C., using a dynamic heating rate of 10° C./minute. Thermal data was analyzed using standard software, e.g., Universal Analysis v.4.5A from TA INSTRUMENTS®.

Remark: listed apart in the source
[5] = Hygroscopicity / form stability versus relative humidity; assay type: physicochemical; details: up to 70% relative humidity, without a form change

Structure (SMILES): COc1ccc2c(c1OC)C(C1CCCCC1=O)N1CCc3cc4c(cc3C1=C2)OCO4 (stereo not drawn) [berberine cyclohexanone adduct]
TGA mass loss [4]: 0.3%

Structure (SMILES): CCC(=O)CC1c2c(ccc(OC)c2OC)C=C2c3cc4c(cc3CCN21)OCO4 (stereo not drawn) [berberine methyl ethyl ketone adduct]
melting point: ~ 130 °C
TGA mass loss [4]: 0.4%

Structure (SMILES): COc1ccc2c(c1OC)C(CC(=O)CC(C)C)N1CCc3cc4c(cc3C1=C2)OCO4 (stereo not drawn) [berberine methyl isobutyl ketone adduct]
TGA mass loss [4]: 0.3%

Structure (SMILES): COc1ccc2c(c1OC)C(CC(=O)c1ccccc1)N1CCc3cc4c(cc3C1=C2)OCO4 (stereo not drawn) [berberine methyl phenyl ketone adduct]
TGA mass loss [4]: 0.3%

Further lines, with some results ahead:

solubility in water [3]: less than 5 g/L
Structure (SMILES): COc1ccc2cc3[n+](cc2c1OC)CCc1cc2c(cc1-3)OCO2 [berberine chloride]
aqueous solubility (literature value) [1]: 1960 ± 110 µg/mL
loss of water ([2]; elevated temperature or low humidity environment): more than 8%
uptake of water ([2]; in water or high humidity environment, converts to tetrahydrate form): about 8%
solid form of solubility residue (powder X-ray pattern) [3]: converted berberine chloride tetrahydrate

TGA mass loss [4]: 0.1%
Structure (SMILES): COc1ccc2c(c1OC)C(CC(=O)C(C)C)N1CCc3cc4c(cc3C1=C2)OCO4 (stereo not drawn) [berberine methyl isopropyl ketone adduct]

TGA mass loss [4]: 0.3%
Structure (SMILES): COc1ccc2c(c1OC)C(CC(C)=O)N1CCc3cc4c(cc3C1=C2)OCO4 (stereo not drawn) [crystalline berberine acetone adduct, berberine acetone adduct]

weight loss in thermal study ([4]; heated to about 150° C.): no significant weight loss
TGA mass loss [4]: 0.4%
hygroscopicity [5]: non-hygroscopic
aqueous solubility, times higher than commercial berberine hydrochloride [3]: more than 50 times
solubility in water [3]: more than 250 g/L
Structure (SMILES): COc1ccc2cc3[n+](cc2c1OC)CCc1cc2c(cc1-3)OCO2 [crystalline berberine ascorbate Form A, berberine ascorbate]

TGA mass loss [4]: 2.5%
Structure (SMILES): COc1ccc2cc3[n+](cc2c1OC)CCc1cc2c(cc1-3)OCO2 [crystalline berberine ascorbate Form B, berberine ascorbate]
